From US10093712B2, “Immunostimulatory compositions and uses thereof” (Susavion Biosciences, Inc., priority 2004, dated 2018)
Read-outs that look alike come from different tables or passages of the source. Where no end group is shown, it is not given here.

Legend:
[1] = system: adherent peripheral blood cells; assay: Oxidative burst of adherent peripheral blood cells, change in absorbance of cytochrome c after PMA; format: cell-based
Protocol: FIG. 7. Response of adherent peripheral blood cells to mimetic peptides. Reduction of cytochrome c by superoxide anion radical is indicated by an increase in absorbance (OD), whereas a loss of absorbance indicates destruction of the cytochrome. (A) Total adherent cells from 300 μl of blood were assayed. Samples 1 and 2 contained 5 nM and 2.5 nM branched mimetic peptide, respectively. Samples 3 and 4 contained 5 nM and 2.5 nM linear mimetic peptide, respectively. Sample 5 contained 50 ng/ml lipopolysaccharide (weight equivalent to 6 nM peptide). Sample 6, untreated control cells. (B) Adherent cells were scraped from the surface and 1×10^5 cells were placed in each well. The assay was performed as in (A). Samples 1 and 2 contained 10 nM and 5 nM mimetic peptide, respectively. Samples 3 and 4 contained 10 nM and 5 nM linear peptide, respectively. Sample 5 contained 50 ng/ml lipopolysaccharide. Sample 6, untreated control cells.
(§1) Oxidative burst: Peripheral blood samples were removed from animals and 300 μl added to wells of a 96-well microtiter plate and incubated overnight at 38° C. in a standard CO2-incubator. The nonadherent cells, including erythrocytes, and serum were removed and centrifuged to pellet cells and obtain cell-free serum. RPMI 1640 medium containing 2 to 10% serum from the same animal were added to each well and incubation of the culture is continued for various periods of time. The polypeptide mimetic was then added to a concentration of 1 to 10 nM and incubation continued for 3 h.
One type of assay of cellular activity measures the response of adherent cells to the polypeptide mimetic by the change in absorbance of cytochrome c (Johnston et al., 1978; Pick and Mizel, 1981). Phorbol 12-myristate 13-acetate (PMA) was added to 140 nM and then cytochrome c was added to 15 μM. Change in absorbance was monitored continuously at 550 nm over 20 min. With 300 μl in each well, reduction of cytochrome c was calculated as: Δnanomoles=absorbance at 550 nm×100/2.1 (Pick and Mizel, 1981). Positive control samples were run with lipopolysaccharide, a known stimulator of macrophage activity. Negative controls lack stimulant.
The oxidative burst upon addition of PMA involves production of the superoxide anion radical. The superoxide anion radical is a strong reducing agent and reduces cytochrome c, which is detected by an increase in absorbance of the sample. Additionally, these cells produce the nitric oxide radical, which reacts with superoxide anion radical at diffusion-limited rates to produce the strong oxidant, peroxynitrite anion (Ischiropoulos et al., 1992). These strong oxidants apparently cause loss of absorbance of the cytochrome.
Without treatment with the polypeptide, again no change in absorbance of the cytochrome was detected.

[2] = pH 7.4
Text: The product was dried and then dissolved in sterile phosphate buffered saline, pH 7.4.

[3] = system: peripheral blood adherent cells; assay: Pyrogallol oxidation initiated by superoxide anion radical from peripheral blood adherent cells; format: cell-based; conditions: 3.4, 1.7 or 0.7 nM versus 50 ng/ml lipopolysaccharide, FIG. 8
Protocol: FIG. 8. Assay of pyrogallol oxidation initiated by superoxide anion radical generation by peripheral blood adherent cells treated with stimulants. Samples 1, 2, and 3, contained 3.4, 1.7 or 0.7 nM (25, 12.5 or 5 ng/ml) of the branched mimetic, respectively. Sample 4 contained 50 ng/ml lipopolysaccharide. Sample 5, untreated control cells.
as §1
The response of cells to the polypeptide was also assayed by oxidation of pyrogallol (Marldund and Marklund, 1974) in a reaction initiated by superoxide anion radical (FIG. 8).

[4] = system: adherent macrophages or neutrophils from canine peripheral blood; assay: Phagocytosis of fluorescent polystyrene beads; format: cell-based; conditions: 3.4 nM (25 ng/ml)
Protocol: (§2) Phagocytosis: Phagocytosis was measured by the uptake of fluorescently-labeled bacterial cells (Molecular Probes, Inc.) or fluorescent polystyrene beads (Polyscience, Inc). Phagocytosis can be quantitated by quenching extracellular (unphagocytized) bacterial cells by addition of the dye trypan blue to the suspension and measuring the remaining (intracellular) fluorescence (Wan et al., 1993).
Phagocytosis of polystyrene beads: Peripheral blood from the canines was added to confocal dishes and incubated over night to allow macrophage adherence. The cells were washed away with PBS, HBSS, or RPMI. Only adherent macrophages or neutrophils remained on the glass surface and were left to incubate in the above mentioned buffers. Polypeptide was then added at 3.4 nM (25 ng/ml) for a 5-hour incubation. At this point, beads were added for a 10-minute incubation. All incubations were done in 37° C. with 5% CO2.

[5] = system: recurring, advanced cancer; conditions: for quality of life: canine cancer patients, subjective; for tumor load / size of the primary tumor: several patients / some cases
Protocol: Owners of dogs that were used to obtain preliminary data were required to sign informed consent and agreement to necropsy forms. Dogs with histologically or cytologically confirmed cancer were given the polypeptide mimetic at doses of 100 to 1,500µg by weekly perfusion into the blood or subcutaneously 3 times per week. The effective dose of the glycopeptide used by Schneider et al. (2003) was 0.4 ng/g body weight given every other day. On this basis, a minimal weekly dose should be 1.4 ng/g body weight. For a large animal (80 lb or 36 kg dog), the starting, minimal-effective, weekly dose of the synthetic mimetic polypeptide would therefore be 50µg or 6.8 nmoles. For initial studies, the mimetic polypeptide (FIG. 4) was administered at a 20-fold higher dose.

[6] = system: canine peripheral blood macrophages; assay: Phagocytosis of fluorescently labeled bacterial cells, trypan blue quench, microscopy; format: cell-based; conditions: for phagocytosis of bacterial cells: then bacterial cells 10 minutes
Protocol: FIG. 9. Microscopic analysis of phagocytosis of fluorescently labeled bacterial cells by adherent cells from canine peripheral blood samples. […] The sample was treated 15 h with 5 nM branched peptide mimetic and then incubated with fluorescently-labeled bacterial cells for 10 min. Fluorescence of bacterial cells that remained extracellular was quenched with trypan blue. […] The samples were not treated with the peptide mimetic, and most of the cells, as in (D) were not fluorescent. A very low level of fluorescence, evidence of low phagocytic activity, was occasionally seen, as shown in (C). Gain was set to maximize detection of fluorescence. Such control samples show the highest level of phagocytosis of bacterial that we have observed. In many experiments, control cells show no fluorescence.
as §2
In one experiment, canine peripheral blood macrophages were treated for 15 hours with 5 nM branched polypeptide (FIG. 4), and then incubated with bacterial cells for 10 minutes, followed by microscopic analysis. Fluorescence of bacterial cells that remained extracellular was quenched with trypan blue. […] (See FIG. 9)
In another experiment, adherent canine peripheral blood cells were treated for 5 hours with 10 nM branched polypeptide (FIG. 4) and then washed. Fluorescent bacterial cells were added, and after 10 minutes, trypan blue was added to quench extracellular bacterial cells. Cells were examined by light microscopy and then by fluorescent microscopy. Contrast in the fluorescent images was maximized to detect any fluorescence in control samples. […] Treated and control samples were from the same dog.

## lipopolysaccharide [reference compound]
[1]; lipopolysaccharide positive control
  change in absorbance of cytochrome c: increase in absorbance of cytochrome c

## [(VQATQSNQHTPRGGGS)2K]2K.beta.AC (not fully specified (C-terminus); printed as [(VQATQSNQHTPRGGGS)2K]2K.beta.AC; also: four-branch lysine core [(seq)2K]2K, betaAla-Cys on core) [branched polypeptide mimetic]
[2]
  stability of the product: at least 3 months
[3]
  oxidation of pyrogallol, activity as stimulant: most active stimulant
[4]
  detachment of neutrophils from the surface: induced detachment of neutrophils from the surface
[4]; 5-hour incubation, 10 to 30 minutes after bead addition
  phagocytosis of polystyrene beads: presence of the beads within cells
[5]; listed as branched peptide mimetic
  quality of life: dramatic improvement in quality of life
[5]; listed as polypeptide
  quality of life: remarkable extension and improvement in the quality of life
  tumor load / size of the primary tumor: reduction in size of the primary tumor
[5]; listed as polypeptide mimetic
  quality of life: dramatically enhanced
  tumor load / size of the primary tumor: reduction in tumor load was detected
[5]; several animals, advanced cancer
  survival on the treatment: ≥ 6 months
[5]; several canine patients with advanced cancer
  extension of life: extension of life beyond what would be normally expected
[5]; several patients
  behavior: restored to pre-disease activities
[1]; FIG. 7
  oxidative burst response compared with linear polypeptide: stronger response than the linear polypeptide
[1]; higher concentrations of polypeptide (5 to 10 nM), FIG. 7A
  change in absorbance of cytochrome c: rapid loss of absorbance
[1]; low concentrations of mimetic polypeptide (1 nM), PMA 140 nM, cytochrome c 15 μM, 550 nm
  change in absorbance of cytochrome c: increase in absorbance of cytochrome c
[1]; lowered cell number (1×10^5 cells per well), FIG. 7B
  rate of reduction of cytochrome c: correlated with the amount of polypeptide mimetic added
[1]; on an equal weight basis
  oxidative burst response compared with lipopolysaccharide: even stronger than to lipopolysaccharide
[6]; 5 nM for 15 hours
  phagocytosis of bacterial cells: dramatically increased phagocytosis
[6]; 10 nM for 5 hours
  attachment of neutrophils: more of the smaller neutrophils become attached
  phagocytosis of bacterial cells: dramatically increased phagocytosis
